# ChEMBL document CHEMBL1155295, “Benzo[c][2,7]naphthyridines as inhibitors of PDK-1” (Bioorg Med Chem Lett, 2009)
# pIC50: −log10 of the molar value.
# Target: T1, 3-phosphoinositide-dependent protein kinase 1 (Homo sapiens, UniProt O15530)
# T1 sequence (O15530 whole entry): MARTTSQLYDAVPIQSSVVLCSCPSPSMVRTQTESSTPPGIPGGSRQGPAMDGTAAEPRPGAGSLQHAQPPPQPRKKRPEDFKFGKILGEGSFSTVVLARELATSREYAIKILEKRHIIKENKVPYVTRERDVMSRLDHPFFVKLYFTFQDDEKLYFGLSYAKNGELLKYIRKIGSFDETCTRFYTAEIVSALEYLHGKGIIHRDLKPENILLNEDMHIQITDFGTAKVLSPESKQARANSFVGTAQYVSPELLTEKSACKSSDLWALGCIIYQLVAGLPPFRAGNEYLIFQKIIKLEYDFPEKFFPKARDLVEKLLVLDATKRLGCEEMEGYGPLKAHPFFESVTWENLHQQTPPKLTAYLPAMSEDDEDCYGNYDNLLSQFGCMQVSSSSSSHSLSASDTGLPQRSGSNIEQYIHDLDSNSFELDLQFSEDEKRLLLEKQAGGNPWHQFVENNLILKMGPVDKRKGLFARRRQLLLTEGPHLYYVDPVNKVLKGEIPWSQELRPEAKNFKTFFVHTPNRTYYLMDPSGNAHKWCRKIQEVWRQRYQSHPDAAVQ
# Assay: Inhibition of PDPK1 by ELISA assay
row,Compound,pIC50
1,COc1cc2ncc3c(N)nc(-c4cncc(Br)c4)cc3c2cc1OC,7.19
2,COc1cc2ncc3c(N)nc(-c4cncc(Nc5ccccc5OCc5ccccc5)c4)cc3c2cc1OC,< 6.00
3,COc1cc2ncc3c(N)nc(-c4cncc(Nc5ccccc5F)c4)cc3c2cc1OC,7.52
4,COc1cc2ncc3c(N)nc(-c4cccnc4)cc3c2cc1OC,7.46
5,COc1cc2ncc3c(N)nc(-c4cncc(N)c4)cc3c2cc1OC,7.59
6,COc1cc2ncc3c(N)nc(-n4ccnc4)cc3c2cc1OC,7.00
7,COc1cc2ncc3c(N)nc(-c4ccc(N)nc4)cc3c2cc1OC,< 6.00
8,COc1cc2ncc3c(N)nc(-c4ccccn4)cc3c2cc1OC,< 7.00

# Further lines, results first:
row,pIC50,Compound
1,< 6.00,COc1cc2ncc3c(N)nc(-c4ccoc4)cc3c2cc1OC
2,6.84,COc1cc2c(cc1OCCCN1CCCCC1)ncc1c(N)nc(-c3cccnc3)cc12
3,6.84,COc1cc2c(cc1OCc1ccccc1)ncc1c(N)nc(-c3cccnc3)cc12
